Source: US20120264817A1, “SOLUBILIZED FORMULATION OF DOCETAXEL WITHOUT TWEEN 80” (priority 2007, published 2012)

Experiments:
[1] = physical stability (onset of precipitation) of initial and final dilutions of docetaxel formulations; type: physicochemical
Experimental: Observations: • 1. The concentrate turns waxy and viscous when stored at temperature below the room temperature, i.e., 22° C. To disperse this viscous mass, a large amount of WFI is needed to make the system suitable for subsequent dilution. So the first step of making a 10 mg/ml solution cannot be achieved with this liquid concentrate. • 2. To achieve a primary dilution of docetaxel of 10 mg/ml, the above concentrate was heated in a water bath to form a viscous liquid, and then diluted with 8 ml of water for injection. The primary dilution is stable for a period of not less than 8 hours, which was a stability condition stipulated in the innovators product. This solution, when further diluted with NS, achieves the targeted concentration range of 0.3-0.74 mg/ml of docetaxel in the final solution for administration. This solution is stable for a period of 24 hours as opposed to the stability of 4 hours with innovators product. In this example, we have achieved the target concentration of docetaxel for administration without the presence of polysorbate 80. • 3.
The concentrate is liquid at room temperature and turned waxy only when stored at 5° C. or below, but turned back to free flowing liquid in 5 minutes when kept at room temperature. • 2. During the initial dilution step to get 10 mg/ml, the contents of the vial turned into a thixotropic liquid within the vial. […]

[2] = docetaxel as marketed by Sanofi-Aventis; cited from earlier work
[3] = solubility studies with docetaxel in solvents/excipients; conditions: glycofurol, organic solvent or mixture
Text: In some instances a solubilizer can provide sufficient degree of dissolution that a separate hydrotrope or other solubilization aid is not needed, but this is generally not the case (i.e. a separate hydrotrope is usually desirable). […] The concentration of drug in solubilizer varies depending on the lipophilicity of drug. […] We have conducted the solubility studies in these excipients to understand how different excipients containing different functional groups are contributing to the solubility of docetaxel. A solubilizer can also act as a hydrotrope (on dilution with infusion fluid) if it is used in the sufficiently large quantities. […] In the table below and the rest of this specification, the terms “solubilizer” and “hydrotrope” will be used with reference to concentrates (both initial and intermediate) unless specifically indicated otherwise or the context so requires.

## CC(=O)O[C@@]12CO[C@@H]1C[C@H](O)[C@@]1(C)C(=O)[C@H](O)C3=C(C)[C@@H](OC(=O)[C@H](O)[C@@H](NC(=O)OC(C)(C)C)c4ccccc4)C[C@@](O)([C@@H](OC(=O)c4ccccc4)[C@H]21)C3(C)C [docetaxel, (2R,3S)—N-carboxy-3-phenylisoserine, N-tert-butyl ester, 13-ester with 5beta-20-epoxy-1,2α,4,7β,10β,13α-hexahyciroxytax-11-en-9-one 4-acetate 2-benzoate, trihydrate]
[1]; about 10 mg/ml solution in glycofurol, diluted with IV fluids
  behaviour on dilution to administration concentrations: will not precipitate out
[1]; about 200 mg/ml liquid concentrate in glycofurol, diluted with water
  behaviour on dilution to administration concentrations: precipitates out
[2]
  lipophilicity: highly lipophilic
  solubility in water: practically insoluble in water
[3]
  solubility: ~200 mg/mL
